Laboratory results as given in ChEMBL document CHEMBL1949526, “Cyclic hydroxyamidines as amide isosteres: discovery of oxadiazolines and oxadiazines as potent and highly efficacious γ-secretase modulators in vivo” (J Med Chem, 2012).

Experiments:
Rattus norvegicus [1] = test: Antialzheimer activity in CD rat assessed as reduction in amyloid beta40 level in CSF at 3 mg/kg, po after 3 hrs by alphaLISA analysis; assay type: functional; design: scale not given: the % may be the effect or the level left
[2] = Efflux ratio of permeability from basolateral to apical side over apical to basolateral side in human Caco2 cells; assay type: ADME, cell-based; conditions: Caco-2
Cynomolgus monkey [3] = test: Antialzheimer activity in cynomolgus monkey assessed as reduction in amyloid beta42 level in cortex at 30 mg/kg, po after 4 hrs by alphaLISA analysis; assay type: functional, Macaca fascicularis; design: scale not given: the % may be the effect or the level left
Rattus norvegicus [4] = test: Antialzheimer activity in CD rat assessed as reduction in amyloid beta42 level in plasma at 3 mg/kg, po after 3 hrs by alphaLISA analysis; assay type: functional; design: scale not given: the % may be the effect or the level left
[5] = Cmax in dog at 10 mg/kg, po; assay type: ADME, organism-based, Canis lupus familiaris; design: dose 10 mg/kg, route oral; conditions: in vivo
Rattus norvegicus [6] = species: Rattus norvegicus; test: Toxicity in rat assessed as production of goblet cell meta/hyperplasia in ileum at highest tolerable dose; assay type: organism-based; conditions: in vivo
Rattus norvegicus [7] = test: Antialzheimer activity in CD rat assessed as reduction in amyloid beta42 level in cortex at 3 mg/kg, po after 3 hrs by alphaLISA analysis; assay type: functional; design: scale not given: the % may be the effect or the level left
Gamma-secretase [8] = test: Modulation of gamma-secretase-mediated cleavage of human APP Swedish and London mutation expressed in HEK293 cells assessed as inhibition of amyloid beta40 production after 5 hrs by sandwich immunoassay; assay type: cell-based
[9] = target: Voltage-gated inwardly rectifying potassium channel KCNH2 (Homo sapiens, UniProt Q12809); test: Inhibition of human ERG by cell based voltage clamp assay
[10] = AUC in rat at 10 mg/kg, po; assay type: ADME, organism-based, Plasma; design: dose 10 mg/kg, route oral; conditions: plasma
[11] = Oral bioavailability in rat at 10 mg/kg; assay type: ADME, organism-based; conditions: in vivo
[12] = Ratio of drug level in brain to plasma in cynomolgus monkey at 30 mg/kg, po after 4 hrs; assay type: ADME, organism-based, Macaca fascicularis; design: dose 30 mg/kg, route oral; conditions: read-out: BPR
Gamma-secretase [13] = test: Modulation of gamma-secretase-mediated cleavage of human APP Swedish and London mutation expressed in HEK293 cells assessed as inhibition of amyloid beta42 production after 5 hrs by sandwich immunoassay; assay type: cell-based
[14] = Volume of distribution at steady state in dog at 3 mg/kg, iv; assay type: ADME, organism-based, Canis lupus familiaris; design: dose 3 mg/kg, route intravenous; conditions: in vivo, read-out: Vdss
[15] = Clearance in dog at 3 mg/kg, iv; assay type: ADME, organism-based, Canis lupus familiaris; design: dose 3 mg/kg, route intravenous; conditions: in vivo
Rattus norvegicus [16] = test: Antialzheimer activity in CD rat assessed as reduction in amyloid beta42 level in CSF at 3 mg/kg, po after 3 hrs by alphaLISA analysis; assay type: functional; design: scale not given: the % may be the effect or the level left
Rattus norvegicus [17] = species: Rattus norvegicus; test: Toxicity in rat assessed as effect on HES-1 expression in jejunum at highest tolerable dose; assay type: organism-based; conditions: in vivo
Cynomolgus monkey [18] = test: Antialzheimer activity in cynomolgus monkey assessed as reduction in amyloid beta42 level in CSF at 30 mg/kg, po after 4 hrs by alphaLISA analysis; assay type: functional, Macaca fascicularis; design: scale not given: the % may be the effect or the level left
Rattus norvegicus [19] = test: Antialzheimer activity in CD rat assessed as reduction in total amyloid beta level in plasma at 3 mg/kg, po after 3 hrs by alphaLISA analysis; assay type: functional; design: scale not given: the % may be the effect or the level left
[20] = Cmax in monkey at 10 mg/kg, po; assay type: ADME, organism-based, Macaca mulatta; design: dose 10 mg/kg, route oral; conditions: rhesus monkey, in vivo
[21] = Oral bioavailability in monkey at 10 mg/kg; assay type: ADME, organism-based, Macaca mulatta; conditions: rhesus monkey, in vivo
[22] = Oral bioavailability in dog at 10 mg/kg; assay type: ADME, organism-based, Canis lupus familiaris; conditions: in vivo
Rattus norvegicus [23] = species: Rattus norvegicus; test: Toxicity in rat assessed as decrease in body weight at highest tolerable dose; assay type: organism-based; conditions: in vivo
[24] = Volume of distribution at steady state in rat at 3 mg/kg, iv; assay type: ADME, organism-based; design: dose 3 mg/kg, route intravenous; conditions: in vivo, read-out: Vdss
[25] = Volume of distribution at steady state in monkey at 3 mg/kg, iv; assay type: ADME, organism-based, Macaca mulatta; design: dose 3 mg/kg, route intravenous; conditions: rhesus monkey, in vivo, read-out: Vdss
[26] = Half life in rat at 3 mg/kg, iv; assay type: ADME, organism-based; design: dose 3 mg/kg, route intravenous; conditions: in vivo
[27] = Ratio of drug level in brain to plasma in CD rat at 3 mg/kg, po after 3 hrs; assay type: ADME, organism-based; design: dose 3 mg/kg, route oral; conditions: read-out: BPR
Canis familiaris = species: Canis familiaris; test: Cardiotoxicity in dog assessed as effect on electrocardiographic QTc interval at compound concentration required for pharmacological effect; assay type: toxicity, organism-based, Canis lupus familiaris; conditions: in vivo
[28] = AUC in dog at 10 mg/kg, po; assay type: ADME, organism-based, Canis lupus familiaris, Plasma; design: dose 10 mg/kg, route oral; conditions: plasma
[29] = Dissociation constant, pKa of the compound; assay type: physicochemical
[30] = Clearance in rat at 3 mg/kg, iv; assay type: ADME, organism-based; design: dose 3 mg/kg, route intravenous; conditions: in vivo
[31] = Plasma concentration in cynomolgus monkey at 30 mg/kg, po after 4 hrs; assay type: ADME, organism-based, Macaca fascicularis; design: dose 30 mg/kg, route oral
Rattus norvegicus [32] = test: Antialzheimer activity in CD rat assessed as reduction in total amyloid beta level in CSF at 3 mg/kg, po after 3 hrs by alphaLISA analysis; assay type: functional; design: scale not given: the % may be the effect or the level left
Rattus norvegicus [33] = test: Antialzheimer activity in CD rat assessed as reduction in amyloid beta40 level in plasma at 3 mg/kg, po after 3 hrs by alphaLISA analysis; assay type: functional; design: scale not given: the % may be the effect or the level left
Rattus norvegicus [34] = species: Rattus norvegicus; test: Toxicity in rat assessed as decrease in thymus size at highest tolerable dose; assay type: organism-based; conditions: in vivo
[35] = Cmax in rat at 10 mg/kg, po; assay type: ADME, organism-based; design: dose 10 mg/kg, route oral; conditions: in vivo
[36] = Clearance in monkey at 3 mg/kg, iv; assay type: ADME, organism-based, Macaca mulatta; design: dose 3 mg/kg, route intravenous; conditions: rhesus monkey, in vivo
[37] = Plasma concentration in CD rat at 3 mg/kg, po after 3 hrs; assay type: ADME, organism-based; design: dose 3 mg/kg, route oral
[38] = Permeability from apical to basolateral side of human Caco2 cells; assay type: ADME, cell-based; conditions: Caco-2, read-out: permeability
[39] = AUC in monkey at 10 mg/kg, po; assay type: ADME, organism-based, Macaca mulatta; design: dose 10 mg/kg, route oral; conditions: rhesus monkey, plasma
Gamma-secretase [40] = test: Modulation of gamma-secretase-mediated notch signaling in HEK293 cells transfected with human APP Swedish and London mutation and Notch1 with truncated extracellular EGF repeat domain assessed as production of notch intracellular domain by MSD-based sandwich immunoassay; assay type: cell-based
[41] = Half life in dog at 3 mg/kg, iv; assay type: ADME, organism-based, Canis lupus familiaris; design: dose 3 mg/kg, route intravenous; conditions: in vivo
Rattus norvegicus [42] = species: Rattus norvegicus; test: Toxicity in rat assessed as effect on adipsin expression in jejunum at highest tolerable dose; assay type: organism-based; conditions: in vivo
Gamma-secretase [43] = test: Modulation of gamma-secretase-mediated cleavage of human APP Swedish and London mutation expressed in HEK293 cells assessed as reduction of total amyloid beta level after 5 hrs by sandwich immunoassay; assay type: cell-based
Rattus norvegicus [44] = test: Antialzheimer activity in CD rat assessed as reduction in amyloid beta40 level in cortex at 3 mg/kg, po after 3 hrs by alphaLISA analysis; assay type: functional; design: scale not given: the % may be the effect or the level left
[45] = Half life in monkey at 3 mg/kg, iv; assay type: ADME, organism-based, Macaca mulatta; design: dose 3 mg/kg, route intravenous; conditions: rhesus monkey, in vivo

Sequence of Voltage-gated inwardly rectifying potassium channel KCNH2 (Q12809 whole entry): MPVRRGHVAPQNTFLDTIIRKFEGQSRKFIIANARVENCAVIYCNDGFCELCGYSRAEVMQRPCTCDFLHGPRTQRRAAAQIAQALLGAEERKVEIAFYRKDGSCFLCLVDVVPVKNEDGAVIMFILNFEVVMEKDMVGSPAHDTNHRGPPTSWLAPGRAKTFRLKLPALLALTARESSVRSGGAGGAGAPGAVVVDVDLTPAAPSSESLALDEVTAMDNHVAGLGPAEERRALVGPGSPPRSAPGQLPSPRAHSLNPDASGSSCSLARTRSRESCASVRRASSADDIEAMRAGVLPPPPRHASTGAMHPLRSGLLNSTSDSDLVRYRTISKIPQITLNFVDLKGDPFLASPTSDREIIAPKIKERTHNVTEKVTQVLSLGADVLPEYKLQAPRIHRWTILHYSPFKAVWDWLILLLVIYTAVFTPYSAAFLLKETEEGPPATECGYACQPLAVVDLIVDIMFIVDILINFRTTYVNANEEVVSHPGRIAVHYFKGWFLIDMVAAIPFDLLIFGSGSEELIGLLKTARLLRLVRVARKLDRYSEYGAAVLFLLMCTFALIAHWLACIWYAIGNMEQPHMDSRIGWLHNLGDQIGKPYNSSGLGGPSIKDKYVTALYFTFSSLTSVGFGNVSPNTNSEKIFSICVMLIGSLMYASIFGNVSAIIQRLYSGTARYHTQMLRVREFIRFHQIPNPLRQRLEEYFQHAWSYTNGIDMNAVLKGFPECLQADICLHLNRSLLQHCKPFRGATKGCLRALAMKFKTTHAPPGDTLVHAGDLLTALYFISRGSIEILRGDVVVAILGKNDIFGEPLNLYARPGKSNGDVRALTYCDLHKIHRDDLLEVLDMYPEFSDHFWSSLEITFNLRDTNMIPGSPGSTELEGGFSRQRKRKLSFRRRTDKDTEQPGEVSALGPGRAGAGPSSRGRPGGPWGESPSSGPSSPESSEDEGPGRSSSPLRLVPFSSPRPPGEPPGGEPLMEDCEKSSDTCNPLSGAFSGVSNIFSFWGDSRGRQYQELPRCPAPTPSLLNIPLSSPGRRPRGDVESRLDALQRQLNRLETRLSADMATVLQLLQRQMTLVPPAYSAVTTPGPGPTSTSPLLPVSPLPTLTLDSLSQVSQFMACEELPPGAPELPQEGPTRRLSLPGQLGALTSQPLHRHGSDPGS

COc1cc(/C=C2\CCCN3C2=NOC[C@@H]3c2cc(F)c(F)c(F)c2)ccc1-n1cnc(C)c1
Activity (Rattus norvegicus [1]): 74% | efflux ratio [2]: 2 | Activity (Cynomolgus monkey [3]): 44% | Activity (Rattus norvegicus [4]): 32% | Cmax [5]: 7.9 µM | Activity (Rattus norvegicus [6]): Non-toxic | Activity (Rattus norvegicus [7]): 63% | IC50 (Gamma-secretase [8]): 123 nM | IC50 [9]: 1000 nM | AUC [10]: 265 µM·h | bioavailability [11]: 100% | Kp at 4 h [12]: 1.4 | IC50 (Gamma-secretase [13]): 33 nM | Vd [14]: 0.6 L/kg | clearance [15]: 9 mL/min/kg | Activity (Rattus norvegicus [16]): 65% | Activity (Rattus norvegicus [17]): Non-toxic | Activity (Cynomolgus monkey [18]): 70% | Activity (Rattus norvegicus [19]): 86% | Cmax [20]: 4.9 µM | bioavailability [21]: 34% | bioavailability [22]: 69% | Activity (Rattus norvegicus [23]): Non-toxic | Vd [24]: 0.4 L/kg | Vd [25]: 0.8 L/kg | half-life [26]: 210 min | Kp at 3 h [27]: 0.49 | Activity (Canis familiaris): Non-toxic | AUC [28]: 27 µM·h | pKa [29]: 2.7 | clearance [30]: 1.4 mL/min/kg | concentration at 4 h [31]: 6 µM | Activity (Rattus norvegicus [32]): 88% | Activity (Rattus norvegicus [33]): 50% | Activity (Rattus norvegicus [34]): Non-toxic | Cmax [35]: 19.8 µM | clearance [36]: 11 mL/min/kg | concentration at 3 h [37]: 3 µM | Papp A→B [38]: 24.6 ×10⁻⁶ cm/s | AUC [39]: 11 µM·h | IC50 (Gamma-secretase [40]): > 50000 nM | half-life [41]: 48 min | Activity (Rattus norvegicus [42]): Non-toxic | IC50 (Gamma-secretase [43]): > 20000 nM | Activity (Rattus norvegicus [44]): 84% | half-life [45]: 54 min
